This assay is described as follows: Effect on body weight of guinea pigs (Example 23). The assay is classed as in vivo, guinea pig. The settings on record: 4 days after two successive dosing, 100 μg/kg s.c. (albumin 80 mg/kg), compared with saline group. From the text:
44 male healthy guinea pigs were provided, and the body weight of each guinea pig was about 300 g.

Regarding “chicken ovalbumin [chicken ovalbumin, albumin group in the guinea pig allergy test]”, the “decrease of body weight” value was “did not decrease”.

Values taken from US8575097B2, “Exendin variant and conjugate thereof” (Pegbio Co., Ltd., priority 2009, dated 2013).
